Results taken from patent publication US11491165B2 (Kinoxis Therapeutics Pty Ltd, priority 2016, dated 2022).

What was measured:
[1] = biological target: T1, oxytocin receptor (OXTR), hOTR (Homo sapiens, UniProt P30559); assay: Competition radioligand binding, [3H]-oxytocin, OTR-expressing HEK293 membranes; settings: [3H]-oxytocin 10 nM, 90 min 4 °C
T1 construct: expressed in transfected cells
T1 sequence (P30559 1-389): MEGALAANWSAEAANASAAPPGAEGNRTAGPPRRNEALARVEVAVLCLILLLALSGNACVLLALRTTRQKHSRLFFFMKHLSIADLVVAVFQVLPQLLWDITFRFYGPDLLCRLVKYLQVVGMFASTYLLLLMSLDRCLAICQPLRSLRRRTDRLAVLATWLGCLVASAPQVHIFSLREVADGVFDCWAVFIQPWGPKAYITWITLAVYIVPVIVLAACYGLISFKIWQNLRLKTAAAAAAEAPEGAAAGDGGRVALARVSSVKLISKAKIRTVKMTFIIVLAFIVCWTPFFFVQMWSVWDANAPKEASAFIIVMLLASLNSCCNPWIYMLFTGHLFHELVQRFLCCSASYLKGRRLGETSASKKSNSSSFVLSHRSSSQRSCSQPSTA

[2] = biological target: T2, vasopressin 1a receptor (V1aR) (Homo sapiens, UniProt P37288); assay: Competition radioligand binding, [3H]-vasopressin, V1aR-expressing HEK293 membranes; settings: [3H]-vasopressin 2 nM, 90 min 4 °C
T2 construct: expressed in transfected cells
T2 sequence (P37288 whole entry): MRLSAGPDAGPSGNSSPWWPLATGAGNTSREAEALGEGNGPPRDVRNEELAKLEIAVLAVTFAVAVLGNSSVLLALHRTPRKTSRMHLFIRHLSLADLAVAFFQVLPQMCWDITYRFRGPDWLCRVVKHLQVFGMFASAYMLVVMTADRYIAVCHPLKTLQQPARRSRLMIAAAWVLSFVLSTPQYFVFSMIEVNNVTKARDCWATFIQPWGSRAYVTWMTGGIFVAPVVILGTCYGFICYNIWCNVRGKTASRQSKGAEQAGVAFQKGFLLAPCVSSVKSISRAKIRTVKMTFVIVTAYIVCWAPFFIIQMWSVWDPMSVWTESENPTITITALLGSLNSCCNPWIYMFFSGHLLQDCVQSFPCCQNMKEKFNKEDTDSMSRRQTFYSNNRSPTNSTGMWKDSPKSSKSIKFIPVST

[3] = biological target: T1, oxytocin receptor (OXTR), hOTR; assay: IP1 accumulation assay, OTR-expressing HEK-293 cells (agonist and antagonist assessment); type: cell-based; settings: for Emax: HEK293, read-out: OXTR Emax (% OXT); for EC50 (OXTR agonist potency, mean ± s.d.) / EC50: agonist assessment; for EC50 (OXTR agonist potency, mean ± s.d.) / IC50: IP1; for EC50: IP1, 1 h; for OV function: ratio of OXTR functional potency to V1aR functional potency, 'OT only' = function at OXTR only; for IC50: antagonist assessment vs OT 30 nM (~EC70)
How it was run: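 Flp-In T-REx HEK-293 cells stably expressing untagged hOTR were induced with tetracycline for 48 h, then exposed 1 h to compound (1 nM-100 μM) alone (agonist mode) or with 30 nM OT (~EC70; antagonist mode). IP1 was measured by HTRF, expressed as % of OT-plus-vehicle and fitted to a 4-parameter logistic curve; n≥3 experiments in duplicate.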

[4] = biological target: T2, vasopressin 1a receptor (V1aR); assay: IP1 accumulation assay, V1aR-expressing HEK-293 cells (agonist and antagonist assessment); type: cell-based; settings: for EC50: agonist assessment, IP1, 1 h; for IC50: antagonist assessment vs AVP 25 nM (~EC70), IP1
BALB/c mice = assay: Murine social interaction test; type: in vivo, Mus musculus; settings: male BALB/c mice, i.p., 10 min test 30 min after injection
Description: Example Testing Effect of WJ0679 on Murine Social Interaction (N=46)
Age: 6-7 weeks at testing
Vehicle: 88% isotonic saline, 10% DMSO, 2% tween 80
Route of administration: intraperitoneal (i.p.) injection
Mice were placed in the arena (40×40×40 cm) in weight and treatment matched pairs of unfamiliar mice for a 10 min test session, commencing 30 min after receiving their i.p. injection. The variables of interest were the time the mice spent in close physical contact with each other and the time each mouse spent engaged in active social investigation (sniffing the other mouse).

| SMILES | Ki [1] [µM] | Ki [2] [µM] | Emax [3] [%] | EC50 (OXTR agonist potency, mean ± s.d.) [3] [µM] | EC50 [3] [µM] | OV function [3] | EC50 [4] [µM] | IC50 [4] [µM] | melting point | IC50 [3] [µM] | time spent in close physical contact (huddling time) (BALB/c mice; all doses (1, 5, 20 mg/kg), most pronounced at 1 and 5 mg/kg, FIG. 1) | active social investigation time (BALB/c mice; doses of 1 and 20 mg/kg, FIG. 2) |
| --- | --- | --- | --- | --- | --- | --- | --- | --- | --- | --- | --- | --- |
| Cn1ncc2c1Nc1ccccc1N(C(=O)c1cccc(F)c1)C2 [WJ0679, (3-Fluorophenyl)(1-methyl-4,10-dihydrobenzo[b]pyrazolo[3,4-e][1,4]diazepin-5 (1H)-yl)methanone] | 0.422 ± 0.129 | 0.105 ± 0.0105 | 12.6 | 0.316 ± 0.108 | 0.406 ± 0.074 | 0.18 | > 10 | 2.2 ± 0.511 | 286 to 288 °C (dec.) |  | significantly increased | significantly increased |
| Cn1ncc2c1Nc1ccccc1N(C(=O)C13CC4CC(F)(CC(F)(C4)C1)C3)C2 [WJ0807dF, ((1r,3R,5S,7r)-3,5-Difluoroadamantan-1-yl)(1-methyl-4,10-dihydrobenzo[b]pyrazolo[3,4-e][1,4]diazepin-5 (1H)-yl)methanone] | > 10 | 2.21 | 26.7 | 0.6677 | 4.15 ± 1.34 |  | > 10 | > 10 | 262 to 264 °C (dec.) |  |  |  |
| Cn1ncc2c1Nc1ccccc1N(C(=O)C13CC4CC(CC(F)(C4)C1)C3)C2 [WJ0807mF, ((1r,3s,5R,7S)-3-Fluoroadamantan-1-yl)(1-methyl-4,10-dihydrobenzo[b]pyrazolo[3,4-e][1,4]diazepin-5 (1H)-yl)methanone] | > 10 | 1.09 ± 0.0583 | 25.3 | 0.6325 ± 0.148 | 2.4 ± 0.652 |  | > 10 | > 10 | 266 to 268 °C (dec.) |  |  |  |
| Cc1ccc(C(=O)N2Cc3cnn(C)c3Nc3ccccc32)cc1C [WJ5103, (3,4-Dimethylphenyl)(1-methyl-4,10-dihydrobenzo[b]pyrazolo[3,4-e][1,4]diazepin-5 (1H)-yl)methanone] | 0.117 ± 0.0124 | 0.014 ± 0.002 | 5.87 | 0.147 ± 0.0643 | 0.109 ± 0.0177 | 0.37 | > 10 | 0.346 ± 0.0909 | 254 to 256 °C (dec.) |  |  |  |

More lines, main results first:

| Ki [1] [µM] | Ki [2] [µM] | Emax [3] [%] | EC50 (OXTR agonist potency, mean ± s.d.) [3] [µM] | EC50 [3] [µM] | OV function [3] | EC50 [4] [µM] | IC50 [4] [µM] | melting point | IC50 [3] [µM] | SMILES | time spent in close physical contact (huddling time) (BALB/c mice; all doses (1, 5, 20 mg/kg), most pronounced at 1 and 5 mg/kg, FIG. 1) | active social investigation time (BALB/c mice; doses of 1 and 20 mg/kg, FIG. 2) |
| --- | --- | --- | --- | --- | --- | --- | --- | --- | --- | --- | --- | --- |
| > 10 | > 10 |  |  | > 10 |  | > 10 | > 10 | 171 to 173 °C | > 10 | Cc1ccc(CN2Cc3cnn(C)c3Nc3ccccc32)cc1C [WJ05105, 5-(3,4-Dimethylbenzyl)-1-methyl-1,4,5,10-tetrahydrobenzo[b]pyrazolo[3,4-e][1,4]diazepine] |  |  |
| 4.07 ± 1.22 | 0.924 |  |  | > 10 |  | > 10 | > 10 | 235 to 238 °C | > 10 | Cc1ccc2c(c1)N(C(=O)c1ccccc1)Cc1cnn(C)c1N2 [WJ07117Me, (1,7-Dimethyl-4,10-dihydrobenzo[b]pyrazolo[3,4-e][1,4]diazepin-5 (1H)-yl)(phenyl)methanone] |  |  |
| > 10 | 0.374 |  |  | > 10 |  | > 10 | > 10 | 248 to 250 °C | > 10 | COc1ccc2c(c1)N(C(=O)c1ccccc1)Cc1cnn(C)c1N2 [WJ07117MeO, (7-Methoxy-1-methyl-4,10-dihydrobenzo[b]pyrazolo[3,4-e][1,4]diazepin-5 (1H)-yl)(phenyl)methanone] |  |  |
